Source: patent US7718666B2, “Pyrido [2,1-a] isoquinoline derivatives” (Hoffmann-La Roche Inc., priority 2003, dated 2010)

Target: human DPP-IV (Homo sapiens, UniProt P27487)
Test: DPP-IV activity assay (fluorogenic / colorimetric), IC50 determination
Protocol: Activity of DPP-IV inhibitors are tested with natural human DPP-IV derived from a human plasma pool or with recombinant human DPP-IV. Human citrate plasma from different donors is pooled, filtered through a 0.2 micron membrane under sterile conditions and aliquots of 1 ml are shock frozen and stored at −120° C. until used. In the colorimetric DPP-IV assay 5 to 10 μl human plasma and in the fluorometric assay 1.0 μl of human plasma in a total assay volume of 100 μl is used as an enzyme source. […] Human DPP-IV is expressed and purified from the culture medium using conventional column chromatography including size exclusion and anion and cation chromatography. […] In the calorimetric DPP-IV assay 20 ng rec.-h DPP-IV and in the fluorometric assay 2 ng rec-h DPP-IV in a total assay volume of 100 μl is used as an enzyme source.
Initial rate constants are calculated by best fit linear regression.
The absorption of pNA liberated from the calorimetric substrate is detected in a Packard SpectraCount at 405 nm continuosly every 2 minutes for 30 to 120 minutes. Initial rate constants are calculated by best fit linear regression.
DPP-IV activity assays are performed in 96 well plates at 37° C. in a total assay volume of 100 μl. […]
Kinetic parameters of the enzyme reaction are calculated at least 5 different substrate concentrations and at least 5 different test compound concentrations.

human DPP-IV, sequence (P27487 31-766): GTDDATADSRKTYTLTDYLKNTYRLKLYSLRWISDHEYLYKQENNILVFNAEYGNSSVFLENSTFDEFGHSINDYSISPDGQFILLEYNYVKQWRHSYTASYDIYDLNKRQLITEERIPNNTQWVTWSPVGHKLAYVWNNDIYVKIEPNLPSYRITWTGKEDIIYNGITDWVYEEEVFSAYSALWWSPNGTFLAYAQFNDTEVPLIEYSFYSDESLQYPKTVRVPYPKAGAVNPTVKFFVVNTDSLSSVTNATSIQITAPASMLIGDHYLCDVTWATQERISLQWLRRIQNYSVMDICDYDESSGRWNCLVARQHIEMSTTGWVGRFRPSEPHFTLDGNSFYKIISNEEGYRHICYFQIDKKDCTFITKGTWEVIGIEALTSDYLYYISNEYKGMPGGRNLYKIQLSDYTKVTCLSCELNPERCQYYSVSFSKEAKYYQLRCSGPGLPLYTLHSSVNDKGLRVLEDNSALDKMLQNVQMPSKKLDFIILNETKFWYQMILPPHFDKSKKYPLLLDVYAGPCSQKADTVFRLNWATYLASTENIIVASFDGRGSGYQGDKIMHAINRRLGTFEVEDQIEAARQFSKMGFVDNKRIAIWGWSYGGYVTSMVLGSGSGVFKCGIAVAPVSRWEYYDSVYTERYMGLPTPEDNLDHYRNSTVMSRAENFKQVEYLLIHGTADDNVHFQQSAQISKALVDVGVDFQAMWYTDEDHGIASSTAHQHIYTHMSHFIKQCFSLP

Structure (SMILES)	IC50 [nM]
COc1cc2c(cc1OC)[C@@H]1C[C@H](N)[C@@H](n3ccc(C)c3)CN1CC2 (racemic) [Example 33, rac-9,10-Dimethoxy-3β-(3-methyl-pyrrol-1-yl)-1,3,4,6,7,11bβ-hexahydro-2H-pyrido[2,1-a]isoquinolin-2α-ylamine]	5.4
COc1cc2c(cc1OC)[C@@H]1C[C@H](N)[C@@H](c3cc(C)ccn3)CN1CC2 [Example 9, 9,10-Dimethoxy-3(S)-(4-methyl-pyridin-2-yl)-1,3,4,6,7,11b(S)-hexahydro-2H-pyrido[2,1a]isoquinolin-2(S)-ylamine]	11.5
